# Measurements from patent US11737999B2, “Amino acid compositions and methods for the treatment of post-acute sequelae of COVID-19” (AXCELLA HEALTH INC., priority 2021, dated 2023).
# What was measured:
# MCP1/CCL2 = MCP1/CCL2 secretion by ELISA in primary human hepatocytes with FFA + TNFα; assay type: cell-based
# MCP-1 = MCP-1 chemokine secretion in primary human hepatic stellate cells stimulated with TNFα; assay type: cell-based
# IL-6 [1] = test: IL-6 cytokine secretion in primary human hepatic stellate cells stimulated with TNFα; assay type: cell-based; conditions: for Fold Change IL-6 Secretion Normalized Per Cell: Isoleucine 66 μM (plasma level, reference)
# Col1a1 = Col1a1 gene expression (RT-qPCR) in primary human hepatic stellate cells stimulated with TGFβ1; assay type: cell-based; conditions: for Col1a1 Fold Expression Relative to Control, Mean: single amino acid
# Procollagen Iα1 = Procollagen Iα1 secretion (ELISA) in primary human hepatic stellate cells stimulated with TGFβ1; assay type: cell-based; conditions: for Procollagen lα1 Secretion (Fold Change of 1X), Mean: first donor; for Procollagen lα1 Secretion (Fold Change of 1X), Mean / Procollagen Iα1 Secretion, Mean: single amino acid
# IL-6 [2] = test: LPS-induced IL-6 secretion in primary human monocyte-derived macrophages; conditions: for IL-6 Measurements, Mean: LPS, baseline subtracted values
# TNF-α = test: LPS-induced TNF-α secretion in primary human monocyte-derived macrophages; conditions: for TNF-α Measurements Mean (baseline subtracted): 0.15 ng/mL LPS
# [3] = hepatic stellate cells, three donors
# [4] = Donor 1, Conc. 66 μM (baseline)
smiles,measurement,setting,value
"CC[C@H](C)[C@H](N)C(=O)O [Isoleucine, L-Isoleucine]","MCP1 expression relative to Control, Mean","MCP1/CCL2; Donor 1, Conc. 66 μM",−1.2E−15
same,"MCP1 expression relative to Control, Mean","MCP1/CCL2; Donor 1, Conc. 1328 μM",−0.3073
same,"MCP1 expression relative to Control, Mean","MCP1/CCL2; Donor 1, Conc. 3320 μM",−2.417
same,"MCP1 expression relative to Control, Mean","MCP1/CCL2; Donor 1, Conc. 6639 μM",−0.205
same,"MCP1 expression relative to Control, Mean","MCP1/CCL2; Donor 2, Conc. 66 μM",0
same,"MCP1 expression relative to Control, Mean","MCP1/CCL2; Donor 2, Conc. 1328 μM",26.62
same,"MCP1 expression relative to Control, Mean","MCP1/CCL2; Donor 2, Conc. 3320 μM",−5.645
same,"MCP1 expression relative to Control, Mean","MCP1/CCL2; Donor 2, Conc. 6639 μM",18.62
same,MCP1/CCL2 secretion (summary in words),"MCP1/CCL2; primary human hepatocytes, two healthy donors",did not have an effect on MCP1/CCL2 secretion
same,"Fold Change MCP1 Secretion Normalized Per Cell, Mean","MCP-1; donor 3, Conc. 66 μM",1.0000 Fold Change
same,Fold Change MCP1 Secretion Normalized Per Cell,"MCP-1; donor 4, Isoleucine 66 μM (plasma level, reference)",1.0000 fold change
same,Fold Change IL-6 Secretion Normalized Per Cell,IL-6 [1]; donor 1,1.0000 fold change
same,Fold Change IL-6 Secretion Normalized Per Cell,IL-6 [1]; donor 2,1.0000 fold change
same,IL-6 secretion (summary in words),"IL-6 [1]; hepatic stellate cells, two donors",no significant effect on IL-6 secretion
same,"Col1a1 Fold Expression Relative to Control, Mean","Col1a1; first donor, 3320 μM",1.10 fold
same,Col1a1 gene expression (summary in words),Col1a1; [3],did not significantly change Col1a1 gene expression in any donor
same,"Col1a1 Fold Expression Relative to Control, Mean","Col1a1; second donor (Table 27), 66 μM (baseline)",1.00 fold
same,"Col1a1 Fold Expression Relative to Control, Mean","Col1a1; second donor (Table 27), 1328 μM",0.97 fold
same,"Col1a1 Fold Expression Relative to Control, Mean","Col1a1; second donor (Table 27), 3320 μM",0.99 fold
same,"Col1a1 Fold Expression Relative to Control, Mean","Col1a1; second donor (Table 27), 6639 μM",1.03 fold
same,"Col1a1 Fold Expression Relative to Control, Mean","Col1a1; second donor (Table 29), 1328 μM",0.94 fold
same,"Col1a1 Fold Expression Relative to Control, Mean","Col1a1; second donor (Table 29), 3320 μM",0.94 fold
same,"Col1a1 Fold Expression Relative to Control, Mean","Col1a1; second donor (Table 29), 6639 μM",1.03 fold
same,"Procollagen lα1 Secretion (Fold Change of 1X), Mean",Procollagen Iα1; 1328 μM,0.9229 fold
same,"Procollagen lα1 Secretion (Fold Change of 1X), Mean",Procollagen Iα1; 3320 μM,1.1366 fold
same,"Procollagen lα1 Secretion (Fold Change of 1X), Mean",Procollagen Iα1; 6639 μM,1.2144 fold
same,procollagen Iα1 secretion (summary in words),Procollagen Iα1; [3],significantly increased procollagen Iα1 secretion in two of three donors
same,"Procollagen Iα1 Secretion, Mean","Procollagen Iα1; second donor, Conc. 66 μM (baseline)",1.0000 Fold Change of 1×
same,"Procollagen Iα1 Secretion, Mean","Procollagen Iα1; second donor, Conc. 1328 μM",1.4811 Fold Change of 1×
same,"Procollagen Iα1 Secretion, Mean","Procollagen Iα1; second donor, Conc. 3320 μM",1.4940 Fold Change of 1×
same,"Procollagen Iα1 Secretion, Mean","Procollagen Iα1; second donor, Conc. 6639 μM",1.5423 Fold Change of 1×
same,"Procollagen Iα1 Secretion, Mean","Procollagen Iα1; third donor, Conc. 66 μM (baseline)",1.0000 Fold Change of 1×
same,"Procollagen Iα1 Secretion, Mean","Procollagen Iα1; third donor, Conc. 1328 μM",1.2687 Fold Change of 1×
same,"Procollagen Iα1 Secretion, Mean","Procollagen Iα1; third donor, Conc. 3320 μM",1.2703 Fold Change of 1×
same,"Procollagen Iα1 Secretion, Mean","Procollagen Iα1; third donor, Conc. 6639 μM",1.4465 Fold Change of 1×
same,"IL-6 Measurements, Mean",IL-6 [2]; [4],0
same,"IL-6 Measurements, Mean","IL-6 [2]; Donor 2, Conc. 1328 μM",−2.318
same,"IL-6 Measurements, Mean","IL-6 [2]; Donor 2, Conc. 3320 μM",2.305
same,"IL-6 Measurements, Mean","IL-6 [2]; Donor 2, Conc. 6639 μM",−1.774
same,IL-6 Measurements Mean (baseline subtracted),"IL-6 [2]; Donor 3, Conc. 3320 μM, 0.15 ng/mL LPS",0
same,TNF-α Measurements Mean (baseline subtracted),TNF-α; [4],0
same,TNF-α Measurements Mean (baseline subtracted),"TNF-α; Donor 1, Conc. 1328 μM",−42.68
same,TNF-α Measurements Mean (baseline subtracted),"TNF-α; Donor 1, Conc. 3320 μM",−96.3
same,TNF-α Measurements Mean (baseline subtracted),"TNF-α; Donor 1, Conc. 6639 μM",−40.95
same,LPS-induced TNF-α secretion (summary in words),TNF-α; Donor 2,increased TNF-α secretion
same,TNF-α Measurements Mean (baseline subtracted),"TNF-α; Donor 2, Conc. 66 μM (baseline)",4.74E−15
same,TNF-α Measurements Mean (baseline subtracted),"TNF-α; Donor 2, Conc. 1328 μM",2.919
same,TNF-α Measurements Mean (baseline subtracted),"TNF-α; Donor 2, Conc. 3320 μM",10.26
same,TNF-α Measurements Mean (baseline subtracted),"TNF-α; Donor 2, Conc. 6639 μM",19.26
same,TNF-α Measurements Mean (baseline subtracted),"TNF-α; Donor 3, Conc. 66 μM (baseline)",−2.4E−15
same,TNF-α Measurements Mean (baseline subtracted),"TNF-α; Donor 3, Conc. 1328 μM",−6.23
same,TNF-α Measurements Mean (baseline subtracted),"TNF-α; Donor 3, Conc. 3320 μM",3.309
same,TNF-α Measurements Mean (baseline subtracted),"TNF-α; Donor 3, Conc. 6639 μM",−1.66
